The values below come from ChEMBL document CHEMBL1255452, “Skin concentrations and pharmacokinetics of posaconazole after oral administration” (Antimicrob Agents Chemother, 2010).

Data set [1] can be described thus: Cmax in high fat fed healthy human skin at 400 mg, po bid after 1 day. It counts as ADME, organism-based, Zone of skin. The arrangement: dose 400 mg, route oral.
For data set [2], the system named is Zone of skin. The experiment in a line: AUC (0 to 24 hrs) in high fat fed healthy human skin measured per gram of tissue at 400 mg, po bid after 1 day. It counts as ADME, organism-based. Also on record: dose 400 mg, time < 24 hr, route oral. As to conditions: in vivo.
The nature of data set [3]: Tmax in high fat fed healthy human skin at 400 mg, po bid after 1 day. It counts as ADME, organism-based, Zone of skin.
Data set [4] deals with Zone of skin. The experiment in a line: AUC (0 to 12 hrs) in high fat fed healthy human skin measured per gram of tissue at 400 mg, po bid after 8 days. Also on record: time < 12 hr, dose 400 mg, route oral. The note with it: in vivo. It counts as ADME, organism-based.
Data set [5] deals with Homo sapiens. Kind of data set: Toxicity in healthy human assessed as treatment related treatment-emergent adverse events at 400 mg, po bid after 8 days. It counts as organism-based. The note with it: in vivo, 192 h.
Data set [6] in a line: Tmax in high fat fed healthy human plasma at 400 mg, po bid after 1 day. It counts as ADME, organism-based.
Data set [7] in a line: T>MIC90 in fungus infected patient plasma at 400 mg, po bid after 1 day. It counts as functional.
The nature of data set [8]: Cmax in high fat fed healthy human plasma at 400 mg, po bid after 8 days. It counts as ADME, organism-based. Also on record: dose 400 mg, route oral.
Data set [9] is described as follows: Cmax in high fat fed healthy human skin at 400 mg, po bid after 8 days. The arrangement: dose 400 mg, route oral. It counts as ADME, organism-based, Zone of skin.
Data set [10] is described as follows: Ratio of AUC in skin to plasma in healthy human at 400 mg, po bid after 8 days. It counts as ADME, organism-based, Skin of body. The note with it: skin and plasma.
A short description of data set [11]: AUC (0 to 24 hrs) in high fat fed healthy human plasma measured per ml of plasma at 400 mg, po bid after 8 days. It counts as ADME, organism-based. Also on record: time < 24 hr, dose 400 mg, route oral.
The nature of data set [12]: T>MIC90 in fungus infected patient skin at 400 mg, po bid after 1 day. It counts as functional.
In data set [13] the test system is Zone of skin. Kind of data set: AUC (0 to 12 hrs) in high fat fed healthy human skin measured per gram of tissue at 400 mg, po bid after 1 day. It counts as ADME, organism-based. Also on record: dose 400 mg, time < 12 hr, route oral. As to conditions: in vivo.
Data set [14] concerns Homo sapiens. The experiment in a line: Toxicity in healthy human assessed as treatment-emergent adverse events at 400 mg, po bid after 8 days. It counts as organism-based. The note with it: in vivo, 192 h.
Data set [15] can be described thus: T>MIC90 in fungus infected patient plasma at 400 mg, po bid after 8 days. It counts as functional.
Data set [16] can be described thus: Cmax in high fat fed healthy human plasma at 400 mg, po bid after 1 day. It counts as ADME, organism-based. The arrangement: dose 400 mg, route oral.
Data set [17] is described as follows: AUC (0 to 24 hrs) in high fat fed healthy human plasma measured per ml of plasma at 400 mg, po bid after 1 day. It counts as ADME, organism-based. Also on record: time < 24 hr, dose 400 mg, route oral.
A short description of data set [18]: T>MIC90 in fungus infected patient skin at 400 mg, po bid after 8 days. It counts as functional.
Data set [19] in a line: Tmax in high fat fed healthy human skin at 400 mg, po bid after 8 days. It counts as ADME, organism-based, Zone of skin.
Data set [20] is described as follows: AUC (0 to 12 hrs) in high fat fed healthy human plasma measured per ml of plasma at 400 mg, po bid after 1 day. It counts as ADME, organism-based. Also on record: dose 400 mg, time < 12 hr, route oral.
The test system of data set [21] is Zone of skin. Kind of data set: AUC (0 to 24 hrs) in high fat fed healthy human skin measured per gram of tissue at 400 mg, po bid after 8 days. It counts as ADME, organism-based. Also on record: dose 400 mg, time < 24 hr, route oral. As to conditions: in vivo.
Data set [22] is described as follows: AUC (0 to 12 hrs) in high fat fed healthy human plasma measured per ml of plasma at 400 mg, po bid after 8 days. It counts as ADME, organism-based. The arrangement: dose 400 mg, time < 12 hr, route oral.

Take `CC[C@@H]([C@H](C)O)n1ncn(-c2ccc(N3CCN(c4ccc(OC[C@@H]5CO[C@@](Cn6cncn6)(c6ccc(F)cc6F)C5)cc4)CC3)cc2)c1=O` [POSACONAZOLE]: the Cmax in [1] turned out to be 328 ng/g; in [8], 1740 ng/mL; in data set [9], 2610 ng/g; in [16], 453 ng/mL. For the same compound, the AUC in the data set on Zone of skin [2] was 3520 ng·h/g; in the data set on Zone of skin [4], 23400 ng·h/g; in the data set with Zone of skin [13] it was 1760 ng·h/g; in the data set on Zone of skin [21], 46800 ng·h/g. For the same compound, the results for the time of peak concentration (Tmax) in [3], in data set [6] and in data set [19] were 12 h, 8 h and 3 h, respectively. Moreover, the Activity with Homo sapiens [5] was found to be 37%; with Homo sapiens [14], 57%. Also, the “T>MIC90” value turned out to be 8.13 h in [7], 2.24 h in data set [12], 12 h in data set [15] and 12 h in data set [18]. The Kp at 192 h in [10] was found to be 1.26. For the same compound, the results for the AUC at 24 h in data set [11] and in data set [17] were 37200 ng·h/mL and 7260 ng·h/mL, respectively. Further, the AUC at 12 h in [20] amounted to 3630 ng·h/mL; in data set [22], 18600 ng·h/mL.

The Cmax is the maximum level reached in the sampled fluid or tissue. A word on the Tmax: it is the time at which the peak concentration occurs. As usually defined, the Kp is tissue or fluid exposure divided by exposure in the circulation.
